Usually IC50 stands for the concentration that gives 50% inhibition.

Read-outs that look alike come from different tables or passages of the source. Where only a bound is given, the exact number is not on record here.

The test system of assay [1] is PA endonuclease. Conditions: cited from earlier work.
In assay [2] the target is H3N2 influenza PA endonuclease (Influenza A virus, UniProt P31343). Kind of assay: PA endonuclease inhibition assay (λ-DNA digestion, agarose gel electrophoresis). Conditions: for IC50: 0.5 µg λ-DNA, PA endonuclease 0.5 mg/mL, 1 h at 37 °C, 1 mM MnCl2, pH 8, 3 measurements; for inhibitory effect on PA endonuclease: macrocycle at 100 µM. It counts as biochemical, Influenza A/Victoria/3/1975 (H3N2). The protocol:
The digestion activity of the purified PA endonuclease was quantified using agarose gel electrophoresis. A concentration range of PA endonuclease (0.5 mg/mL to 0.5 µg/mL) was mixed with 0.5 µg of λ-DNA (Takara, Japan) in buffer at a final concentration of 20 mM Tris HCl pH 8, 100 mM NaCl, 1 mM MnCl2, 10 mM β-mercaptoethanol. After one hour of incubation at 37 °C, the samples were deposited on ethidium bromide treated agarose gel 0.6% and run during 90 minutes at 75 V. The gel was then scanned (Figure S2). 100 µM solutions of each macrocyclic molecules (Scheme 1) were mixed with 0.5 µg of buffered λ-DNA. This mixture was then combined with the PA endonuclease enzyme and incubated for 1 hour at 37 °C. The samples were deposited on agarose gel 0.6% previously mixed with ethidium bromide and run during 90 minutes at 75 V, after which the gel was scanned. Digestion activity was plotted as a function of inhibitor concentration by quantifying the intensity of the digested bands with ImageJ software. The IC50 values were calculated as in our work on endonuclease inhibition. The intensity of λ-DNA bands was subtracted from negative control (λ-DNA lane) and then normalized from the positive control (λ-DNA and PA protein lane without inhibitor).
100 µM of each macrocyclic molecules β-CDsul, SC[n]a, SC[n]b, and SC[n]c (Figure 1) have been mixed to 0.5 µg of λ-DNA in a buffer at final concentration of 20 mM Tris HCl pH 8, 100 mM NaCl, 1 mM MnCl2, 10 mM β-mercaptoethanol.
The mixture was then mixed with the PA endonuclease enzyme at 0.5 mg/mL and incubated for 1 h at 37 °C.
The samples have been deposited on agarose gel 0.6% previously mixed with ethidium bromide and run over 90 min at 75 V. The gel was then scanned on the ChemiDoc XRS system (Bio-Rad).
The digestion activity is then plotted as a matter of inhibitor concentration by quantifying the intensity of the digested bands with ImageJ software.

For assay [3], the system named is influenza virus. Details: method as in PMID 30184455. The settings on record: clinical trials, compared to oseltamivir; cited from earlier work.
[4] abbreviates: PA endonuclease, in vitro assays only, read-out: Inhibition Activity IC50.

Regarding `O=c1[nH]cncc1O` [5-hydroxypyrimidin-4(3H)-one], the half-inhibitory concentration (IC50) in assay [1] (setting [4]) is 0.15 µM.
As for `O=S(=O)(O)OC[C@H]1O[C@@H]2O[C@H]3[C@H](OS(=O)(=O)O)[C@@H](OS(=O)(=O)O)[C@@H](O[C@H]4[C@H](OS(=O)(=O)O)[C@@H](OS(=O)(=O)O)[C@@H](O[C@H]5[C@H](OS(=O)(=O)O)[C@@H](OS(=O)(=O)O)[C@@H](O[C@H]6[C@H](OS(=O)(=O)O)[C@@H](OS(=O)(=O)O)[C@@H](O[C@H]7[C@H](OS(=O)(=O)O)[C@@H](OS(=O)(=O)O)[C@@H](O[C@H]8[C@H](OS(=O)(=O)O)[C@@H](OS(=O)(=O)O)[C@@H](O[C@H]1[C@H](OS(=O)(=O)O)[C@H]2OS(=O)(=O)O)O[C@@H]8COS(=O)(=O)O)O[C@@H]7COS(=O)(=O)O)O[C@@H]6COS(=O)(=O)O)O[C@@H]5COS(=O)(=O)O)O[C@@H]4COS(=O)(=O)O)O[C@@H]3COS(=O)(=O)O` [CD, Sulfated β-cyclodextrin, reference compound], the IC50 in assay [2] was more than 100 µM.
Same read-out and setting: under `O=S(=O)(O)CCCOc1c2cccc1Cc1cccc(c1OCCCS(=O)(=O)O)Cc1cccc(c1OCCCS(=O)(=O)O)Cc1cccc(c1OCCCS(=O)(=O)O)C2` [SC4b] stands more than 100 µM; under `O=S(=O)(O)CCCOc1c2cc(S(=O)(=O)O)cc1Cc1cc(S(=O)(=O)O)cc(c1OCCCS(=O)(=O)O)Cc1cc(S(=O)(=O)O)cc(c1OCCCS(=O)(=O)O)Cc1cc(S(=O)(=O)O)cc(c1OCCCS(=O)(=O)O)Cc1cc(S(=O)(=O)O)cc(c1OCCCS(=O)(=O)O)Cc1cc(S(=O)(=O)O)cc(c1OCCCS(=O)(=O)O)C2` [SC6c], more than 100 µM.
Same read-out and setting: in the case of `O=S(=O)(O)CCCOc1c2cccc1Cc1cccc(c1OCCCS(=O)(=O)O)Cc1cccc(c1OCCCS(=O)(=O)O)Cc1cccc(c1OCCCS(=O)(=O)O)Cc1cccc(c1OCCCS(=O)(=O)O)Cc1cccc(c1OCCCS(=O)(=O)O)C2` [SC6b] it was more than 100 µM.
For `O=C1c2c(O)c(=O)ccn2N([C@@H]2c3ccccc3SCc3c2ccc(F)c3F)[C@@H]2COCCN12` [Baloxavir Acid], the concentration for half-maximal inhibition (IC50) in assay [1] (PA endonuclease, read-out: Inhibition Activity IC50) was 0.00023 µM; in assay [1] (in vitro assay, viral PA polymerase unit, read-out: IC50) it was 0.0025 µM.
As to `O=P(O)(O)Oc1c2cccc1Cc1cccc(c1O)Cc1cccc(c1OP(=O)(O)O)Cc1cccc(c1O)C2` [C4diP, Calix[4]arene dihydroxyphosphonic acid], in assay [2], the 50% inhibitory concentration (IC50) was more than 100 µM; the “inhibitory effect on PA endonuclease” value is “neither SC4 and its derivatives nor C4diP show any inhibitory effects”.
With `O=S(=O)(O)c1cc2c(O)c(c1)Cc1cc(S(=O)(=O)O)cc(c1O)Cc1cc(S(=O)(=O)O)cc(c1O)Cc1cc(S(=O)(=O)O)cc(c1O)Cc1cc(S(=O)(=O)O)cc(c1O)Cc1cc(S(=O)(=O)O)cc(c1O)C2` [SC6a], in assay [2], 11.2 ± 3.6 µM corresponded to half-maximal inhibition (IC50).
The same measure, in the same setting: under `O=S(=O)(O)CCCOc1c2cccc1Cc1cccc(c1OCCCS(=O)(=O)O)Cc1cccc(c1OCCCS(=O)(=O)O)Cc1cccc(c1OCCCS(=O)(=O)O)Cc1cccc(c1OCCCS(=O)(=O)O)Cc1cccc(c1OCCCS(=O)(=O)O)Cc1cccc(c1OCCCS(=O)(=O)O)Cc1cccc(c1OCCCS(=O)(=O)O)C2` [SC8b] stands 14 ± 2.2 µM; under `O=S(=O)(O)CCCOc1c2cc(S(=O)(=O)O)cc1Cc1cc(S(=O)(=O)O)cc(c1OCCCS(=O)(=O)O)Cc1cc(S(=O)(=O)O)cc(c1OCCCS(=O)(=O)O)Cc1cc(S(=O)(=O)O)cc(c1OCCCS(=O)(=O)O)Cc1cc(S(=O)(=O)O)cc(c1OCCCS(=O)(=O)O)Cc1cc(S(=O)(=O)O)cc(c1OCCCS(=O)(=O)O)Cc1cc(S(=O)(=O)O)cc(c1OCCCS(=O)(=O)O)Cc1cc(S(=O)(=O)O)cc(c1OCCCS(=O)(=O)O)C2` [SC8c], 18.7 ± 0.7 µM.
As to `COC(=O)OCOc1c2n(ccc1=O)N([C@@H]1c3ccccc3SCc3c1ccc(F)c3F)[C@@H]1COCCN1C2=O` [Baloxavir Marboxil], the “reduction in viral loads” value in assay [3] is listed as “greater reduction in viral loads”.
`O=S(=O)(O)CCCOc1c2cc(S(=O)(=O)O)cc1Cc1cc(S(=O)(=O)O)cc(c1OCCCS(=O)(=O)O)Cc1cc(S(=O)(=O)O)cc(c1OCCCS(=O)(=O)O)Cc1cc(S(=O)(=O)O)cc(c1OCCCS(=O)(=O)O)C2` [SC4c] came in with an IC50 in assay [2] of more than 100 µM.
Consider `O=C(O)c1c[nH]cc(O)c1=O` [5-hydroxy-4-pyridone-3-carboxy acid], for which, in assay [1] (setting [4]), the IC50 is 3.23 µM.
Take `O=S(=O)(O)c1cc2c(O)c(c1)Cc1cc(S(=O)(=O)O)cc(c1O)Cc1cc(S(=O)(=O)O)cc(c1O)Cc1cc(S(=O)(=O)O)cc(c1O)Cc1cc(S(=O)(=O)O)cc(c1O)Cc1cc(S(=O)(=O)O)cc(c1O)Cc1cc(S(=O)(=O)O)cc(c1O)Cc1cc(S(=O)(=O)O)cc(c1O)C2` [SC8a, para-sulfonato-calix[8]arene]: the concentration for half-maximal inhibition (IC50) in assay [2] worked out at 6.4 ± 1.4 µM.
For `O=S(=O)(O)c1cc2c(O)c(c1)Cc1cc(S(=O)(=O)O)cc(c1O)Cc1cc(S(=O)(=O)O)cc(c1O)Cc1cc(S(=O)(=O)O)cc(c1O)C2` [SC4a, para-sulfonato-calix[4]arene], in assay [2], the 50% inhibitory concentration (IC50) was more than 100 µM; the “inhibitory effect on PA endonuclease” value is “neither SC4 and its derivatives nor C4diP show any inhibitory effects”.

Source of the values: publication PMC6627454, “Size and Flexibility Define the Inhibition of the H3N2 Influenza Endonuclease Enzyme by Calix[n]arenes” (Antibiotics, 2019).
